Measured values: the supplement of paper PMC10307832

How the values were obtained:
Experiment in all cases: relative viability (nuclei count vs DMSO), 5 days (fraction); higher = more cells survive
JZL-184 + OSI-027 = compound: C1CN(CCC1C(C2=CC3=C(C=C2)OCO3)(C4=CC5=C(C=C4)OCO5)O)C(=O)OC6=CC=C(C=C6)[N+](=O)[O-] [JZL-184] + COc1cccc2cc(-c3nc([C@H]4CC[C@H](C(=O)O)CC4)n4ncnc(N)c34)[nH]c12 [OSI-027] (partner 0.5 µM)
Outline: (§1)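 Relative viability divides the nuclei count in treated wells by that in vehicle wells. Lung cancer cell lines were seeded in 1536-well plates, dosed by pin tool the next day, and fixed and stained after 5 days in one step with final 0.05% Triton X-100, 1% formaldehyde and 1 ug/ml Hoechst. Dosing was a single drug or a fixed anchor-drug dose plus five library-drug doses (not always all listed) in √10 steps, and values are medians of duplicate plates imaged at 4×.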

JZL-184 + Trametinib = compound: C1CN(CCC1C(C2=CC3=C(C=C2)OCO3)(C4=CC5=C(C=C4)OCO5)O)C(=O)OC6=CC=C(C=C6)[N+](=O)[O-] [JZL-184] + CC(=O)Nc1cccc(-n2c(=O)n(C3CC3)c(=O)c3c(Nc4ccc(I)cc4F)n(C)c(=O)c(C)c32)c1 [Trametinib] (partner 0.02 µM)
Outline: as §1

JZL-184 + Luminespib = compound: C1CN(CCC1C(C2=CC3=C(C=C2)OCO3)(C4=CC5=C(C=C4)OCO5)O)C(=O)OC6=CC=C(C=C6)[N+](=O)[O-] [JZL-184] + CCNC(=O)c1noc(-c2cc(C(C)C)c(O)cc2O)c1-c1ccc(CN2CCOCC2)cc1 [Luminespib] (partner 0.01 µM)
Outline: as §1

JZL-184 + Vorinostat = compound: C1CN(CCC1C(C2=CC3=C(C=C2)OCO3)(C4=CC5=C(C=C4)OCO5)O)C(=O)OC6=CC=C(C=C6)[N+](=O)[O-] [JZL-184] + O=C(CCCCCCC(=O)Nc1ccccc1)NO [Vorinostat] (partner 1 µM)
Outline: as §1

JZL-184 + AZD7762 = compound: C1CN(CCC1C(C2=CC3=C(C=C2)OCO3)(C4=CC5=C(C=C4)OCO5)O)C(=O)OC6=CC=C(C=C6)[N+](=O)[O-] [JZL-184] + NC(=O)Nc1cc(-c2cccc(F)c2)sc1C(=O)N[C@H]1CCCNC1 [AZD7762] (partner 0.2 µM)
Outline: as §1

Cell Line | relative viability (JZL-184 + OSI-027; first compound 0.04 µM) | relative viability (JZL-184 + OSI-027; first compound 0.4 µM) | relative viability (JZL-184 + OSI-027; first compound 1.265 µM) | relative viability (JZL-184 + OSI-027; first compound 4 µM) | relative viability (JZL-184 + Trametinib; first compound 0.04 µM) | relative viability (JZL-184 + Trametinib; first compound 0.4 µM) | relative viability (JZL-184 + Trametinib; first compound 1.265 µM) | relative viability (JZL-184 + Trametinib; first compound 4 µM) | relative viability (JZL-184 + Luminespib; first compound 0.04 µM) | relative viability (JZL-184 + Luminespib; first compound 0.4 µM) | relative viability (JZL-184 + Luminespib; first compound 1.265 µM) | relative viability (JZL-184 + Luminespib; first compound 4 µM) | relative viability (JZL-184 + Vorinostat; first compound 0.04 µM) | relative viability (JZL-184 + Vorinostat; first compound 0.4 µM) | relative viability (JZL-184 + Vorinostat; first compound 1.265 µM) | relative viability (JZL-184 + Vorinostat; first compound 4 µM) | relative viability (JZL-184 + AZD7762; first compound 0.04 µM) | relative viability (JZL-184 + AZD7762; first compound 0.4 µM) | relative viability (JZL-184 + AZD7762; first compound 1.265 µM) | relative viability (JZL-184 + AZD7762; first compound 4 µM)
EKVX | 0.752 | 0.536 | 0.669 | 0.704 | 0.322 | 0.348 | 0.364 | 0.359 | 0.795 | 0.71 | 0.944 | 0.863 | 0.676 | 0.666 | 0.719 | 0.58 | 0.732 | 0.688 | 0.793 | 0.645
EMC-BAC-2 | 0.368 | 0.375 | 0.396 | 0.343 | 0.955 | 0.899 | 0.832 | 0.827 | 1.26 | 1.11 | 1.24 | 1.09 | 0.522 | 0.451 | 0.761 | 0.371 | 1.16 | 1.11 | 1.14 | 1.08
EPLC-272H | 0.311 | 0.259 | 0.35 | 0.351 | 0.288 | 0.32 | 0.272 | 0.23 | 0.242 | 0.241 | 0.886 | 0.84 | 0.509 | 0.536 | 0.402 | 0.53 | 0.194 | 0.186 | 0.211 | 0.302
H3255 | 0.563 | 0.52 | 0.557 | 0.589 | 0.71 | 0.581 | 0.684 | 0.549 | 1.03 | 0.765 | 1 | 0.938 | 0.849 | 0.819 | 0.857 | 0.722 | 0.945 | 0.743 | 0.948 | 0.86
HARA | 0.547 | 0.444 | 0.614 | 0.456 | 0.678 | – | 0.652 | 0.696 | 0.808 | 0.739 | 1.03 | 0.757 | 0.608 | 0.557 | 0.681 | 0.395 | 0.126 | – | 0.43 | 0.379
HCC-15 | 0.727 | 0.635 | 0.742 | 0.677 | 0.384 | 0.353 | 0.413 | 0.431 | 0.421 | 0.294 | 0.343 | 0.339 | 0.918 | 0.796 | 0.919 | 0.773 | 1 | 1.21 | 1.3 | 1.14
HCC-44 | 0.628 | 0.366 | 0.689 | 0.471 | 1.04 | 1.07 | 1.04 | 1.01 | 1.59 | 0.973 | 1.09 | 1.09 | 1.28 | 1.05 | 1.13 | 1.06 | 1.14 | 1.01 | 1.03 | 0.987
HCC-78 | 0.348 | 0.326 | 0.379 | 0.382 | 0.705 | – | 0.912 | 0.565 | – | – | – | – | 0.405 | – | 0.492 | 0.378 | 0.594 | – | 0.688 | 0.618
